According to patent US8202893B2, “Cannabinergic lipid ligands” (University of Connecticut, priority 2004, dated 2012):

The compounds below were run against T1, COX-2 (Homo sapiens, UniProt P35354) (assay: Inhibition of COX: arachidonic acid metabolism). Conditions: 25 nmoles compound with 25 nmoles AA, 250 μL, 2 min.
T1 construct: purchased Cayman Chemical
T1 sequence (P35354 18-604): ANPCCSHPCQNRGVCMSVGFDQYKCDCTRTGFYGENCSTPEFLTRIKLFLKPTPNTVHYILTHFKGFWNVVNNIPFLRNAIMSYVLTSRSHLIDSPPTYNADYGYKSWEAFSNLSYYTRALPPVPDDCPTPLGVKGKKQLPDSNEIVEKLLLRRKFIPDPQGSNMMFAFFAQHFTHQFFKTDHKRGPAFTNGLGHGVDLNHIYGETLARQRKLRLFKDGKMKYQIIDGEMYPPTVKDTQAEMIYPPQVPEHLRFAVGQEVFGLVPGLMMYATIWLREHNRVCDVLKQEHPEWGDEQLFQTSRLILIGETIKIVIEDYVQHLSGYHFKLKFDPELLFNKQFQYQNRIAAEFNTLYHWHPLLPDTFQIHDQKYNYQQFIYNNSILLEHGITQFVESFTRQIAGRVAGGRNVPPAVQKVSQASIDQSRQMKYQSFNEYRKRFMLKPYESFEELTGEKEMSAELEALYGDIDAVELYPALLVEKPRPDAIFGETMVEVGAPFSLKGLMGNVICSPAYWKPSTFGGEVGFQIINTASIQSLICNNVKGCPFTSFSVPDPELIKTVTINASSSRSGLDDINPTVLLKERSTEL
Assay type: biochemical
Protocol: All compound solutions were made to a concentration of 10 mM in DMSO. Three tests were performed on each compound: hydrolysis, to determine the stability of the compound in assay conditions without the enzyme present; metabolism, to determine the stability of the compound with the enzyme present; and inhibition of arachidonic acid (AA) metabolism.
To test the stability of the compounds in enzyme assay conditions, 25 nmoles of the compound were incubated with 12.5 μl 100 uM hematin in assay buffer (0.1M PH8.0 Tris-HCl, 2 mM phenol, 5 mM EDTA, 0.1% BSA, final volume of 250 μL) for 2 minutes at 25° C. Samples (100 μL) were taken at the start of the assay and after 2 minutes, diluted 1:5 with acetonitrile and centrifuged (20,000 RCF, five minutes, room temperature) to precipitate the proteins. The resulting supernatant was injected onto the HPLC. Calculations for determining the percent compound remaining are described in the following equation: % R=Peak Area(T2)/Peak Area(T0) To determine whether or not the compounds were good substrates for COX enzyme, 25 nmoles of the compound were incubated with 12.5 μl COX enzyme (purchased form Cayman Chemical) and 5 uM hematin in assay buffer (final volume 250 μL). The reaction mixture was treated in the same manner as described above. Concentrations of AA were calculated using external standards. […] Again the reaction mixture was treated in the same manner as described above and the concentrations of AA were calculated using external standards. Percent inhibition was calculated using the following equation: % Inhib.=(AA0-AA2)i/(AA0-AA2)s where (AA0-AA2)i is the amount of arachidonic acid metabolized over 2 minutes with the inhibitor present and (AA0-AA2)s is the amount of arachidonic acid metabolized over 2 minutes when the inhibitor is not present. […] The reaction mixtures were treated as described above and the amount of AA metabolized was calculated. The software package GraphPad Prism was utilized to calculate IC50 and Ki. HPLC Conditions:
Chromatographic separation was achieved using an Ultrasphere ODS Pre-column (4.6×45 mm) from Beckman. Hardware consisted of a Waters Millennium HPLC system with a 20 μL injection loop. The mobile phase consisted of 8.5% o-phosphoric acid:acetonitrile (3:7), run isocratically at a rate of 1 mL/min and detection at 204 nm. The total run time was 8 minutes with AA at 6.0 minutes.
In the case of `O=C(CCC/C=C\C/C=C\C/C=C\C/C=C\CCc1ccccc1)Nc1ccc(O)cc1` [Compound A3], the “COX-2 % Inhibition” value is reported as 77.4%. `COc1cc(CNC(=O)CCC/C=C\C/C=C\C/C=C\C/C=C\CCCCN=C=S)ccc1O` [Compound A12] was tested, and the “COX-2 % Inhibition” value was 46.2%. `COc1cc(CNC(=O)CCC/C=C\C/C=C\C/C=C\C/C=C\CCCCN=[N+]=[N-])ccc1O` [Compound A7] was tested, and the “COX-2 % Inhibition” value was 42.4%. For `O=C(CCC/C=C\C/C=C\C/C=C\C/C=C\CCCCc1ccccc1)NCC1CC1` [Compound A1], the “COX-2 % Inhibition” value was 78.4%.
